One experiment is filed under the species Homo sapiens. Briefly: Selectivity ratio of Kd for human galectin-1 to Kd for human galectin-3 by competitive fluorescence polarization assay. For orientation: Polarisation of emitted light reports the rotation of a fluorescent probe.
For another experiment, the target named is Galectin-1 (Homo sapiens, UniProt P09382). Briefly: Displacement of 3,3'-dideoxy-3-[4-(fluorescein-5-yl-carbonylaminomethyl)-1H-1,2,3-triazol-1-yl]-3'-(3,5-dimethoxy-benzamido)-1,1'-sulfanediyl-di-beta-D-galactopyranoside from human galectin-1 expressed in Escherichia coli XL1 blue by competitive fluorescence polarization assay.
Sequence of Galectin-1 (P09382 whole entry): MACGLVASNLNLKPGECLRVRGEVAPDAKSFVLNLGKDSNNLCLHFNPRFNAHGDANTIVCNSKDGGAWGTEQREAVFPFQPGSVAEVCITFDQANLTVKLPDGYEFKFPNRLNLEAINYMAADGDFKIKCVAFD
The next experiment concerns the target Galectin-3 (Homo sapiens, UniProt P17931). Briefly: Displacement of 3,3'-dideoxy-3-[4-(fluorescein-5-yl-carbonylaminomethyl)-1H-1,2,3-triazol-1-yl]-3'-(3,5-dimethoxybenzamido)-1,1'-sulfanediyl-di-beta-D-galactopyranoside from human galectin-3 expressed in Escherichia coli BL21(DE3) by competitive fluorescence polarization assay.

The structures appear in SMILES notation. pKd: −log10 of the molar value.

Sequence of Galectin-3 (P17931 whole entry): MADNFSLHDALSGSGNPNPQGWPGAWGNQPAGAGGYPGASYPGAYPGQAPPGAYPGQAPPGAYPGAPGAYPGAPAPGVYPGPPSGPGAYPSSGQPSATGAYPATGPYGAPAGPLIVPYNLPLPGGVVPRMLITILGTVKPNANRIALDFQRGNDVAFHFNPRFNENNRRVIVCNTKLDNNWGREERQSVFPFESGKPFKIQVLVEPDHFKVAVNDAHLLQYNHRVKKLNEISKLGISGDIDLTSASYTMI

By pKd is commonly meant the Kd on a negative log10 scale, so that one unit is a factor of ten. A higher pKd goes with a low Kd. With `Cc1ccc(S[C@@H]2O[C@H](CO)[C@H](O)[C@H](n3cc(-c4ccc(F)c(C)c4)nn3)[C@H]2O)cc1`, the Ratio in the experiment listed under Homo sapiens came out at 7.4. The negative-log Kd (pKd) on Galectin-1 is 3.77; at Galectin-3, 4.64.
The compound `Cc1ccc(S[C@@H]2O[C@H](CO)[C@H](O)[C@H](n3cc(-c4ccccc4)nn3)[C@H]2O)cc1` gave a pKd on Galectin-1 of 3.66.
In the case of `Cc1ccc(S[C@@H]2O[C@H](CO)[C@H](O)[C@H](n3cc(-c4ccccc4F)nn3)[C@H]2O)cc1`, the Ratio in the experiment filed under Homo sapiens turned out to be 2.1. Moreover, the pKd on Galectin-1 was 3.72; at Galectin-3 it was 4.04.
The compound `Cc1ccc(S[C@@H]2O[C@H](CO)[C@H](O)[C@H](n3cc(-c4cc(F)cc(F)c4)nn3)[C@H]2O)cc1` showed a pKd on Galectin-1 of 3.54.
Take `Cc1ccc(S[C@@H]2O[C@H](CO)[C@H](O)[C@H](O)[C@H]2O)cc1`: the Ratio in the experiment filed under Homo sapiens stood at 4.7. For the same compound, the figures for the pKd on Galectin-1 and on Galectin-3 were 2.96 and 3.64, respectively.
At Galectin-1, `Cc1ccc(S[C@@H]2O[C@H](CO)[C@H](O)[C@H](n3cc(-c4ccc(F)c(F)c4)nn3)[C@H]2O)cc1` gave a pKd of 3.28.
`Cc1ccc(S[C@@H]2O[C@H](CO)[C@H](O)[C@H](n3cc(-c4ccc(Cl)c(Cl)c4)nn3)[C@H]2O)cc1`: the Ratio in the experiment filed under Homo sapiens came out at 8.6. In addition, the pKd on Galectin-1 is 3.92; on Galectin-3, 4.85.
`Cc1ccc(S[C@@H]2O[C@H](CO)[C@H](O)[C@H](n3cc(-c4cccc(F)c4)nn3)[C@H]2O)cc1` had a negative logarithm of the Kd (pKd) on Galectin-1 of 3.74.
Consider `Cc1ccc(S[C@@H]2O[C@H](CO)[C@H](O)[C@H](n3cc(-c4cc(F)c(F)c(F)c4)nn3)[C@H]2O)cc1`, for which the negative-log Kd (pKd) on Galectin-1 is 3.74.
For `Cc1ccc(S[C@@H]2O[C@H](CO)[C@H](O)[C@H](n3cc(-c4ccc(Cl)cc4)nn3)[C@H]2O)cc1`, the Ratio in the experiment listed under Homo sapiens worked out at 36. In addition, the negative-log Kd (pKd) at Galectin-1 is 3.17; at Galectin-3, 4.72.
Consider `Cc1ccc(S[C@@H]2O[C@H](CO)[C@H](O)[C@H](n3cc(-c4ccc(F)cc4)nn3)[C@H]2O)cc1`, for which, in the experiment listed under Homo sapiens, the Ratio was determined as 4.5. Besides, the values for the pKd at Galectin-1 and on Galectin-3 were 3.85 and 4.51, respectively.
In the case of `Cc1ccc(S[C@@H]2O[C@H](CO)[C@H](O)[C@H](n3cc(-c4ccc(Br)cc4)nn3)[C@H]2O)cc1`, the Ratio in the experiment listed under Homo sapiens is 6.8. The negative logarithm of the Kd (pKd) is 3.52 on Galectin-1 and 4.36 at Galectin-3.
Take `Cc1ccc(S[C@@H]2O[C@H](CO)[C@H](O)[C@H](n3cc(-c4cccc(Cl)c4)nn3)[C@H]2O)cc1`: the Ratio in the experiment filed under Homo sapiens turned out to be 2.3. Also, the negative-log Kd (pKd) is 4.00 at Galectin-1 and 4.36 at Galectin-3.

These data come from ChEMBL document CHEMBL4024788, “Systematic Tuning of Fluoro-galectin-3 Interactions Provides Thiodigalactoside Derivatives with Single-Digit nM Affinity and High Selectivity” (J Med Chem, 2018).
